Data reported in patent US11591604B2, “Gene expression in Bacteroides” (Massachusetts Institute of Technology, priority 2015, dated 2023).

The substances below were run on NanoLuc (assay: NanoLuc luciferase reporter expression from constitutive promoters and RBSs integrated with pNBU2). Conditions: RBS combined with promoter PBT1311, NanoLuc reporter, three biological replicates.
Assay type: cell-based, B. thetaiotaomicron
Source text: FIGS. 1A-1G. Genetic parts to control expression in B. thetaiotaomicron. (FIG. 1A) The ranges of gene expression are shown for the different gene regulation systems provided herein. (FIG. 1B) IntN2 catalyzes stable integration of pNBU2-based expression constructs into one of two attBT2 sites in the B. thetaiotaomicron genome. The two attBT2 sites (attBT2-1 at nucleotide (nt) 6,217,227 and attBT2-2 at nt 6,138,320) are in the 3′ ends of tRNA^Ser genes (BT_t71 and BT_t70, respectively). (FIG. 1C) Constitutive promoters and ribosome binding sites for the construction of gene expression libraries. The putative −33 and −7 regions of the PBT1311 promoter, the Shine-Delgarno sequence, and the start codon are indicated by black boxes. Numbers below the black boxes represent nucleotide locations relative the PBT1311 transcription start site. The 26 nt sequences introduced in the PAM promoters are shown (see also FIGS. 6A-6B). Numbers at the edges of the boxes indicate the PBT1311 nucleotides replaced or the insertion site within the promoter. The location of residues randomized in the rpiL* RBS library are indicated with gray arrows (for library A: nt −14, −13, −12; for library B: nt −21, −18, −15; and for library C: nt −17, −16, −11; nt numbering is relative to the translation start site). (FIG. 1D) Activity was measured for a set of constitutive promoters and their cognate RBSs. Furthermore, a set of constitutive promoters (PBT1311, PAM1, PAM2, PAM3, PAM4) was combined with RBSs of varying strengths. Gene expression was measured using a luciferase reporter (NanoLuc). (FIG. 1E) Three large RBS libraries were constructed and combined with promoter PBT1311 to span 10^3-fold in gene expression. For reference, the parent rpiL* RBS is indicated with a black arrow. For D and E, error bars represent the standard deviation of three independent biological replicates made on separate days. (FIG. 1F) The strength of each RBS was compared to the predicted free energy of folding for the mRNA (ΔGfold,). (FIG. 1G) Strong (SEQ ID NO: 210) and weak (SEQ ID NO: 211) consensus sequences for the rpiL* −21 to −11 RBS region targeted by mutagenesis (residue locations are stated relative to the translation start site) are provided. Frequency logos were generated for the 11 strongest and 11 weakest RBSs by comparing the frequency of each nucleotide at each position in that group with the frequency of that nucleotide in that position in the full library. Position −20 and −19 were not randomized and are thus are not shown in the frequency logos.
All genetic parts in this study were characterized using the integration vector pNBU2 to ensure genetic stability of the constructs (FIG. 1B). The pNBU2 plasmid encodes the intN2 tyrosine integrase, which mediates sequence-specific recombination between the attN site of pNBU2 and one of two attBT sites located in the 3′ ends of the two tRNA^Ser genes, BT_t70 and BT_t71, on the B. thetaiotaomicron chromosome (FIG. 1B). Insertion of the pNBU2 plasmid inactivates the tRNA^Ser gene, and simultaneous insertion into both BT_t70 and BT_t71 is unlikely due to the essentiality of tRNA^Ser. pNBU2-based vectors have been used for single-copy complementation in B. thetaiotaomicron in in vitro studies (Koropatkin N M et al. Nat. Rev. Microbiol. 10:323-35, 2012) and in vivo mouse models (Martens E C et al. Cell Host Microbe 4:447-57, 2008).
B. thetaiotaomicron genetic parts were characterized with NanoLuc luciferase (Hall M P et al. ACS Chem. Biol. 7:1848-1857, 2012), which is a small (19 kDa) modified shrimp luciferase. Efforts to use members of the green fluorescent protein family and a FMN-based fluorescent reporter were not successful. NanoLuc oxidizes the exogenously-added substrate furimazine to produce glow-type bioluminescence (Emax=460 nm) with a signal half-life of 2 hr. […]

Substance | Average Luminescence (RLU/CFU)
B30: RBS, SEQ ID NO: 82 (DNA TCCCGCATTTTAAAATAAAATAAATGATGTATTTAATTAAACGAAT; chemistry not fully specified) | 0.009276 RLU/CFU
B31: RBS, SEQ ID NO: 85 (DNA TCCCGCATTTTAAAATAAAATAAATGATCTAGTTAATTAAACGAAT; chemistry not fully specified) | 0.008534 RLU/CFU
B32: RBS, SEQ ID NO: 92 (DNA TCCCGCATTTTAAAATAAAATAAATGATGTAGTTAATTAAACGAAT; chemistry not fully specified) | 0.007096 RLU/CFU
B33: RBS, SEQ ID NO: 97 (DNA TCCCGCATTTTAAAATAAAATAAATCATGTATTTAATTAAACGAAT; chemistry not fully specified) | 0.006272 RLU/CFU
B34: RBS, SEQ ID NO: 98 (DNA TCCCGCATTTTAAAATAAAATAAATCATCTATTTAATTAAACGAAT; chemistry not fully specified) | 0.00584 RLU/CFU
B35: RBS, SEQ ID NO: 105 (DNA TCCCGCATTTTAAAATAAAATAAATCATGTACTTAATTAAACGAAT; chemistry not fully specified) | 0.005272 RLU/CFU
B36: RBS, SEQ ID NO: 112 (DNA TCCCGCATTTTAAAATAAAATAAATCATATAATTAATTAAACGAAT; chemistry not fully specified) | 0.004282 RLU/CFU
B37: RBS, SEQ ID NO: 121 (DNA TCCCGCATTTTAAAATAAAATAAATCATATATTTAATTAAACGAAT; chemistry not fully specified) | 0.002567 RLU/CFU
B38: RBS, SEQ ID NO: 127 (DNA TCCCGCATTTTAAAATAAAATAAATCATTTAGTTAATTAAACGAAT; chemistry not fully specified) | 0.001793 RLU/CFU
B39: RBS, SEQ ID NO: 133 (DNA TCCCGCATTTTAAAATAAAATAAATCATCTAGTTAATTAAACGAAT; chemistry not fully specified) | 0.001255 RLU/CFU
B40: RBS, SEQ ID NO: 134 (DNA TCCCGCATTTTAAAATAAAATAAATCATGTAGTTAATTAAACGAAT; chemistry not fully specified) | 0.001108 RLU/CFU
B41: RBS, SEQ ID NO: 139 (DNA TCCCGCATTTTAAAATAAAATAAATCATATAGTTAATTAAACGAAT; chemistry not fully specified) | 0.0001307 RLU/CFU
C1: RBS, SEQ ID NO: 11 (DNA TCCCGCATTTTAAAATAAAATAAATTATTGATTTAGTTAAACGAAT; chemistry not fully specified) | 0.04468 RLU/CFU
C2: RBS, SEQ ID NO: 13 (DNA TCCCGCATTTTAAAATAAAATAAATTATTACTTTAGTTAAACGAAT; chemistry not fully specified) | 0.04331 RLU/CFU
C3: RBS, SEQ ID NO: 14 (DNA TCCCGCATTTTAAAATAAAATAAATTATTACTTTAATTAAACGAAT; chemistry not fully specified) | 0.03677 RLU/CFU
C4: RBS, SEQ ID NO: 16 (DNA TCCCGCATTTTAAAATAAAATAAATTATTTATTTAGTTAAACGAAT; chemistry not fully specified) | 0.03516 RLU/CFU
C5: RBS, SEQ ID NO: 17 (DNA TCCCGCATTTTAAAATAAAATAAATTATTCATTTAATTAAACGAAT; chemistry not fully specified) | 0.03327 RLU/CFU
C6: RBS, SEQ ID NO: 19 (DNA TCCCGCATTTTAAAATAAAATAAATTATTAATTTAGTTAAACGAAT; chemistry not fully specified) | 0.03263 RLU/CFU

Substance | Average Luminescence (RLU/CFU)
C7: RBS, SEQ ID NO: 20 (DNA TCCCGCATTTTAAAATAAAATAAATTATTAATTTACTTAAACGAAT; chemistry not fully specified) | 0.03249 RLU/CFU
C8: RBS, SEQ ID NO: 21 (DNA TCCCGCATTTTAAAATAAAATAAATTATTTATCGAATTAAACGAAT; chemistry not fully specified) | 0.03132 RLU/CFU
C9: RBS, SEQ ID NO: 23 (DNA TCCCGCATTTTAAAATAAAATAAATTATTGCTTTAATTAAACGAAT; chemistry not fully specified) | 0.02988 RLU/CFU
C10: RBS, SEQ ID NO: 31 (DNA TCCCGCATTTTAAAATAAAATAAATTATTATTTTAATTAAACGAAT; chemistry not fully specified) | 0.02583 RLU/CFU
C11: RBS, SEQ ID NO: 36 (DNA TCCCGCATTTTAAAATAAAATAAATTATTTTTTTACTTAAACGAAT; chemistry not fully specified) | 0.02223 RLU/CFU
C12: RBS, SEQ ID NO: 37 (DNA TCCCGCATTTTAAAATAAAATAAATTATTAGTTTAGTTAAACGAAT; chemistry not fully specified) | 0.02151 RLU/CFU
C13: RBS, SEQ ID NO: 38 (DNA TCCCGCATTTTAAAATAAAATAAATTATTAATTTAATTAAACGAAT; chemistry not fully specified) | 0.02149 RLU/CFU
C14: RBS, SEQ ID NO: 40 (DNA TCCCGCATTTTAAAATAAAATAAATTATTTCTTTACTTAAACGAAT; chemistry not fully specified) | 0.02123 RLU/CFU
C15: RBS, SEQ ID NO: 41 (DNA TCCCGCATTTTAAAATAAAATAAATTATTTCTTTAATTAAACGAAT; chemistry not fully specified) | 0.02056 RLU/CFU
C16: RBS, SEQ ID NO: 43 (DNA TCCCGCATTTTAAAATAAAATAAATTATTAGTTTAATTAAACGAAT; chemistry not fully specified) | 0.0203 RLU/CFU
C17: RBS, SEQ ID NO: 45 (DNA TCCCGCATTTTAAAATAAAATAAATTATTAGTTTATTTAAACGAAT; chemistry not fully specified) | 0.01871 RLU/CFU
C18: RBS, SEQ ID NO: 47 (DNA TCCCGCATTTTAAAATAAAATAAATTATTGTTTTACTTAAACGAAT; chemistry not fully specified) | 0.01851 RLU/CFU
C19: RBS, SEQ ID NO: 48 (DNA TCCCGCATTTTAAAATAAAATAAATTATTGCTTTAGTTAAACGAAT; chemistry not fully specified) | 0.01835 RLU/CFU
C20: RBS, SEQ ID NO: 51 (DNA TCCCGCATTTTAAAATAAAATAAATTATTGTTTTAGTTAAACGAAT; chemistry not fully specified) | 0.01758 RLU/CFU
C21: RBS, SEQ ID NO: 54 (DNA TCCCGCATTTTAAAATAAAATAAATTATTGGTTTAATTAAACGAAT; chemistry not fully specified) | 0.01602 RLU/CFU
C22: RBS, SEQ ID NO: 57 (DNA TCCCGCATTTTAAAATAAAATAAATTATTGTTTTAATTAAACGAAT; chemistry not fully specified) | 0.01508 RLU/CFU
C23: RBS, SEQ ID NO: 60 (DNA TCCCGCATTTTAAAATAAAATAAATTATTGATTTACTTAAACGAAT; chemistry not fully specified) | 0.01469 RLU/CFU
